In patent US20230310388A1, “Methods and Compositions for Treating Fungal Infections” (Neoculi Pty Ltd, priority 2020, published 2023):
In brackets after ≈: the same amount, converted by molar mass. Several values for one entry are separate records, joined by “and”; a condition that tells them apart may be missing. Equal values may be shown once.

Tested on: Candida albicans ATCC14053
Test: Broth micro-dilution screen at 16 μg/mL and MIC (Example 9)
Format: cell-based
Conditions: for Screen at 16 μg/mL: single concentration 16 μg/mL, Growth or No growth of C. albicans ATCC14053; for MIC: C. albicans ATCC14053, test range 0.25-64 μg/mL, duplicate
Protocol: The antifungal activity of 201 NCL analogs against Candida albicans ATCC14053 in vitro was investigated. A broth micro-dilution method was used, according to CLSI guidelines as described. NCL analogs were dissolved in DMSO and originally screened at a single concentration of 16 μg/mL.

Row | SMILES | Screen at 16 μg/mL | MIC
1 | CCCCC(=NNC(=N)NN=C(CCCC)c1ccc(Cl)cc1)c1ccc(Cl)cc1.Cl [NCL154] | Growth | –
2 | CC(=NNC(=N)NN=C(C)c1ccc(Br)cc1)c1ccc(Br)cc1.Cl [NCL155] | Growth | –
3 | CCCC(=NNC(=N)NN=C(CCC)c1ccc(Cl)cc1)c1ccc(Cl)cc1.Cl [NCL156] | Growth | –
4 | Cl.N=C(NN=Cc1ccc(OC(F)(F)F)cc1)NN=Cc1ccc(OC(F)(F)F)cc1 [NCL160] | No growth | 1 µg/mL and 2 µg/mL
5 | CCO/C(N)=N/N=C(\C)c1ccc(Cl)cc1 [NCL162] | Growth | –
6 | Cl.N=C(NN=C1C(=O)Nc2ccccc21)NN=C1C(=O)Nc2ccccc21 [NCL163] | Growth | –
7 | Cl.N=C(NN=Cc1ccc(SC(F)(F)F)cc1)NN=Cc1ccc(SC(F)(F)F)cc1 [NCL166] | Growth | –
8 | Cl.N=C(NN=C(C(=O)O)c1ccccc1)NN=C(C(=O)O)c1ccccc1 [NCL167] | Growth | –
9 | CC(=O)Nc1cc(Cl)ccc1C=NNC(=N)NN=Cc1ccc(Cl)cc1NC(C)=O [NCL170] | Growth | –
10 | CC(=NNC(=N)NN=C(C)c1ccccn1)c1ccccn1.Cl [NCL172] | Growth | –
11 | Cl.N=C(NN=Cc1cnccc1Cl)NN=Cc1cnccc1Cl [NCL175] | Growth | –
12 | Cl.N=C(NN=C(CO)c1ccc(Cl)cc1)NN=C(CO)c1ccc(Cl)cc1 [NCL177] | Growth | –
13 | CC(=NNc1cc(NN=C(C)c2ccc(Cl)cc2)ncn1)c1ccc(Cl)cc1 [NCL178] | Growth | –
14 | Nc1nc(NN=Cc2ccc(Cl)cc2)cc(NN=Cc2ccc(Cl)cc2)n1 [NCL179] | Growth | –
15 | CC(Nc1cc(NC(C)c2ccccc2)nc(N)n1)c1ccccc1 (stereo not drawn) [NCL184] | Growth | –
16 | CC(=NNc1cc(NN=C(C)c2ccc(Cl)cc2)ncn1)c1ccc(Cl)cc1.Cl [NCL185] | Growth | –
17 | Cl.Clc1ccc(/C=N/Nc2cc(N/N=C/c3ccc(Cl)cc3)ncn2)cc1 [NCL187] | Growth | –
18 | CCCCC(=NNC(=N)N)c1ccc(Cl)cc1.Cl [NCL188] | Growth | –
19 | Cl.OCC(=NNc1cc(NN=C(CO)c2ccc(Cl)cc2)ncn1)c1ccc(Cl)cc1 [NCL189] | Growth | –
20 | Cl.N=C(N)NN=C(CNN)c1ccc(Cl)cc1 [NCL190] | Growth | –
21 | Cl.N=C(N)N/N=C(\C(=O)O)c1ccccc1 [NCL192] | Growth | –
22 | Nc1nc(NN=Cc2ccc(Br)cc2)cc(NN=Cc2ccc(Br)cc2)n1 [NCL193] | Growth | –

Row | SMILES | Screen at 16 μg/mL | MIC
23 | Nc1nc(NN=Cc2ccc(O)cc2)cc(NN=Cc2ccc(O)cc2)n1 [NCL196] | Growth | –
24 | Nc1nc(NN=Cc2cccc(O)c2)cc(NN=Cc2cccc(O)c2)n1 [NCL197] | Growth | –
25 | CC(C)(C)c1ccc(C=NNc2cc(NN=Cc3ccc(C(C)(C)C)cc3)nc(N)n2)cc1.Cl.Cl [NCL198] | Growth | –
26 | Nc1nc(NN=Cc2ccccc2)cc(NN=Cc2ccccc2)n1 [NCL199] | Growth | –
27 | CN(C)c1ccc(C=NNc2cc(NN=Cc3ccc(N(C)C)cc3)nc(N)n2)cc1 [NCL201] | Growth | –
28 | Nc1nc(NN=Cc2ccccc2O)cc(NN=Cc2ccccc2O)n1 [NCL202] | Growth | –
29 | Cl.Cl.Nc1nc(NN=CC2CCCCC2)cc(NN=CC2CCCCC2)n1 [NCL203] | Growth | –
30 | CC(=NNc1cc(NN=C(C)c2ccc(Cl)cc2)nc(N)n1)c1ccc(Cl)cc1 [NCL204] | Growth | –
31 | Nc1nc(NN=Cc2ccccc2Cl)cc(NN=Cc2ccccc2Cl)n1 [NCL205] | Growth | –
32 | Cc1ccc(C=NNc2nc(N)nc(NN=Cc3ccc(C)cc3)n2)cc1 [NCL206] | Growth | –
33 | Nc1nc(NN=Cc2ccccc2O)nc(NN=Cc2ccccc2O)n1 [NCL207] | Growth | –
34 | CC(=NNc1nc(N)nc(NN=C(C)c2ccc(Cl)cc2)n1)c1ccc(Cl)cc1 [NCL208] | Growth | –
35 | Nc1nc(NN=Cc2ccc(O)cc2)nc(NN=Cc2ccc(O)cc2)n1 [NCL211] | Growth | –
36 | Nc1nc(NN=Cc2ccc(Br)cc2)nc(NN=Cc2ccc(Br)cc2)n1 [NCL212] | Growth | –
37 | Nc1nc(NN=CC2CCCCC2)nc(NN=CC2CCCCC2)n1 [NCL213] | Growth | –
38 | Nc1nc(NN=Cc2ccccc2)nc(NN=Cc2ccccc2)n1 [NCL214] | Growth | –
39 | CC(=NNC(=N)NN=C(C)c1ccc(Cl)cc1F)c1ccc(Cl)cc1F.Cl [NCL215] | Growth | –
40 | Cl.N=C(NN=Cc1ccc(Cl)cc1F)NN=Cc1ccc(Cl)cc1F [NCL216] | Growth | >64 µg/mL
41 | C/C(=N\NC(=N)N/N=C(\C)c1ccc(C)cc1)c1ccc(C)cc1.Cl [NCL217] | No growth | 4 µg/mL
42 | Nc1nc(NN=Cc2ccc(C(F)(F)F)cc2)cc(NN=Cc2ccc(C(F)(F)F)cc2)n1 [NCL221] | Growth | –
43 | Nc1nc(N/N=C/c2ccc(F)c(F)c2)cc(N/N=C/c2ccc(F)c(F)c2)n1 [NCL222] | Growth | –
44 | CC(=O)Nc1ccc(C=NNc2cc(NN=Cc3ccc(NC(C)=O)cc3)nc(N)n2)cc1 [NCL223] | Growth | –

Row | SMILES | Screen at 16 μg/mL | MIC
45 | CCOC(=O)N(/N=C/c1ccc(Cl)cc1)C(=N)N/N=C/c1ccc(Cl)cc1 [NCL224] | Growth | –
46 | CC(C)COC(=O)N(N=Cc1ccc(Cl)cc1)C(N)=NN=Cc1ccc(Cl)cc1 [NCL225] | Growth | –
47 | NC(=NN=Cc1ccc(Cl)cc1)N(N=Cc1ccc(Cl)cc1)C(=O)NCc1ccccc1 [NCL227] | Growth | >64 µg/mL
48 | NC(=NN=Cc1ccc(Cl)cc1)N(N=Cc1ccc(Cl)cc1)C(=O)NCc1ccco1 [NCL229] | Growth | –
49 | COc1ccc(C=NNc2cc(NN=Cc3ccc(OC)cc3)nc(N)n2)cc1 [NCL230] | Growth | –
50 | CC(=NNC(=N)N)c1ccc(C(C)(C)C)cc1 [NCL231] | Growth | –
51 | CC(C)(C)c1ccc(C=NNC(=N)N)cc1 [NCL232] | Growth | –
52 | CCCC(=NNC(=N)N)c1ccc(Cl)cc1.Cl [NCL233] | Growth | –
53 | CCC(=NNC(=N)N)c1ccc(Cl)cc1 [NCL234] | Growth | –
54 | N=C(N)NN=Cc1ccc(Cl)cc1F [NCL235] | Growth | –
55 | CC(=NNC(=N)N)c1ccc(Cl)cc1F [NCL236] | Growth | –
56 | N=C(N)NN=C(CC1CCCCC1)c1ccc(Cl)cc1O [NCL237] | Growth | –
57 | Nc1nc(NN=Cc2ccc(Cl)nc2)cc(NN=Cc2ccc(Cl)nc2)n1 [NCL238] | Growth | –
58 | Nc1nc(NN=Cc2cccnc2)cc(NN=Cc2cccnc2)n1 [NCL239] | Growth | –
59 | Nc1nc(NN=Cc2ccncc2)cc(NN=Cc2ccncc2)n1 [NCL241] | Growth | –
60 | Nc1nc(NN=Cc2ccc(O)c(O)c2)cc(NN=Cc2ccc(O)c(O)c2)n1 [NCL243] | No growth | 16 µg/mL and 32 µg/mL
61 | Nc1nc(NN=Cc2cccc(O)c2O)cc(NN=Cc2cccc(O)c2O)n1.O=Cc1cccc(O)c1O [NCL244] | Growth | >64 µg/mL
62 | Nc1nc(NN=Cc2cccc3ccccc23)cc(NN=Cc2cccc3ccccc23)n1 [NCL245] | Growth | –
63 | Nc1nc(NN=CC=Cc2ccccc2)cc(NN=CC=Cc2ccccc2)n1 [NCL246] | Growth | –
64 | N=C(N)NN=Cc1cccc2ccccc12 [NCL248] | Growth | –
65 | N=C(N)NN=CC=Cc1ccccc1 [NCL249] | Growth | –
66 | Clc1ccc(C=NCCCN=Cc2ccc(Cl)cc2)cc1 [NCL252] | Growth | –

Row | SMILES | Screen at 16 μg/mL | MIC
67 | CN(C)c1ccc(/C=N/NC(=N)N)cc1 [NCL253] | Growth | –
68 | CCCCCC(=NNC(=N)N)c1ccc(Cl)cc1.Cl [NCL254] | No growth | 8 µg/mL
69 | Nc1nc(NN=Cc2ccc(-c3ccccc3)cc2)cc(NN=Cc2ccc(-c3ccccc3)cc2)n1 [NCL255] | Growth | –
70 | Nc1nc(NN=Cc2ccc(O)cc2O)cc(NN=Cc2ccc(O)cc2O)n1 [NCL256] | Growth | –
71 | Clc1ccc(CNCCCCNCc2ccc(Cl)cc2)cc1 [NCL258] | Growth | –
72 | Cl.N=C(N)NN=Cc1ccc2ccccc2c1 [NCL261] | Growth | –
73 | Nc1nc(NN=CCCc2ccccc2)cc(NN=CCCc2ccccc2)n1 [NCL262] | Growth | –
74 | Nc1nc(NN=Cc2ccc3ccccc3c2)cc(NN=Cc2ccc3ccccc3c2)n1 [NCL264] | Growth | –
75 | N=C(N)NN=C(CCC1CCCC1)c1ccc(Cl)cc1 [NCL266] | No growth | 4 µg/mL (≈ 13.7 µM)
76 | CC(=NNC(=N)NN=C(C)c1c[nH]c2ccccc12)c1c[nH]c2ccccc12 [NCL268] | No growth | 4 µg/mL (≈ 10.8 µM)
77 | CCCCCC(=NNC(=N)NN=C(CCCCC)c1ccc(Cl)cc1)c1ccc(Cl)cc1 [NCL271] | No growth | 1 µg/mL (≈ 2.11 µM)
78 | CCCCCCCC(=NNC(=N)NN=C(CCCCCCC)c1ccc(Cl)cc1)c1ccc(Cl)cc1 [NCL272] | Growth | –
79 | CCOCC(=NNC(=N)NN=C(COCC)c1ccc(Cl)cc1)c1ccc(Cl)cc1 [NCL275] | Growth | –
80 | Cl.N=C(NN=Cc1cccc2nsnc12)NN=Cc1cccc2nsnc12 [NCL276] | Growth | –
81 | Cl.N=C(NN=Cc1ccc2nsnc2c1)NN=Cc1ccc2nsnc2c1 [NCL277] | Growth | –
82 | Cl.N=C(N)NN=Cc1cnc2ccccc2n1 [NCL278] | Growth | –
83 | Cl.N=C(N)NN=Cc1nc2ccccc2s1 [NCL279] | Growth | –
84 | Cl.N=C(N)NN=Cc1ccc2nsnc2c1 [NCL280] | Growth | –
85 | Cl.N=C(N)N/N=C/c1cccc2nsnc12 [NCL281] | Growth | –
86 | Cl.N=C(NN=Cc1ccc2ncccc2c1)NN=Cc1ccc2ncccc2c1 [NCL282] | No growth | –
